Measured values as given in patent publication US20210038566A1, “USE OF MODULATORS OF NEET PROTEINS FOR THE TREATMENT OF INFECTION” (ENYO PHARMA, priority 2018, published 2021).

System: H1N1 (influenza A/New Caledonia/20/99)
Assay: microbe, parasite or virus in culture
Format: cell-based
Conditions: H1N1, A549, 48 h, read-out: IC50 (antiviral effect, Influenza replication)

Row | Structure (SMILES) | IC50
1 | CCc1ccc(CCOc2ccc(CC3SC(=O)NC3=O)cc2)nc1 (stereo not drawn) [Pioglitazone] | 38 µM
2 | COc1ccc(C(=O)Nc2sc3c(c2C(=O)O)CCC(C)(C)C3)cc1OC [Compound #18] | 0.05 µM
3 | CCOC(=O)N1CCC(NC(=S)Nc2cc(Cl)cc(Cl)c2)CC1 [Compound T01001, ethyl-4-(3-(3,5-dichlorophenyl)thioureido)piperidine-1-carboxylate] | 18 µM
